Data published in patent US20060019312A1, “CIS-interactions between MHC molecules and co-expressed proteins, related neurological and non-neurological disorders and related therapeutic/diagnostic utilities” (priority 2004, published 2006).

Test system: GluR1 / MHC class I (b2m)
Experiment: Co-immunoprecipitation of GluR1 with anti-b2m antibodies from brain slices, Western blot with anti-GluR1
Assay type: cell-based, mouse
Settings: NMDA 40 micromolar in ACSF, 3 minutes, 30 min wash
Protocol: FIG. 6 is a representation of a Western blot which illustrates that the NMDA-dependent Glutamate receptor co-immunoprecipitates with an MHC Class I molecule; 400-micron-thick slices of adult mouse brain (wild type or b2m-/-TAP-/- [MHC class I-deficient]) were cut and allowed to recover in oxygenated (95% O2, 5% CO2) artifical cerebro-spinal fluid (ACSF) for 1 hour at room temperature; a subset of slices were then transferred to a recording chamber and allowed to recover for 40 min in flowing oxygenated ACSF (2 ml/minute); these slices were treated with NMDA (40 micromolar in ACSF, 3 minutes) and then washed for 30 min in oxygenated ACSF; at this time, all slices (treated and untreated) were homogenized as below and processed for immunoprecipitation with antibodies against b2m, IgG, or GluR1, and the resulting precipitates were probed in Western blots with antibodies against GluR1.
Hippocampal slice (400 um) samples were prepared by homogenizing tissue in NP40 Lysis buffer (50 mM Tris, 150 mM NaCl, 1 mM EDTA, 1% NP40, pH 7.6) with protease inhibitors (1 ug/mL aprotinin, 1 ug/mL leupeptin, 1 ug/mL pepstatin, 1 mM Na orthovanadate, 1 mM PMSF, phosphatase inhibitor cocktail sigma, 1:100). After letting the tissue sit on ice for 15 min., samples were centrifuged at 13,000 rpm, 4°, for 10 min. […]

SMILES: CN[C@H](CC(=O)O)C(=O)O [NMDA]
- co-immunoprecipitation of GluR1 with anti-b2m antibodies (MHC-deficient (b2m-/- TAP-/-; KO) adult mouse brain slices): fails to induce coimmunoprecipitation of GluR1
- co-immunoprecipitation of GluR1 with antibodies against the light chain of MHC class I (b2m) (WT adult mouse brain slices): co-precipitates GluR1 only after NMDA treatment
